According to ChEMBL document CHEMBL3871307, “Discovery of Chromane Propionic Acid Analogues as Selective Agonists of GPR120 with in Vivo Activity in Rodents” (ACS Med Chem Lett, 2017):

Tests used:
[1] = target: T1, Free fatty acid receptor 4 (Homo sapiens, UniProt Q5NUL3); assay: Agonist activity at human GPR120 short isoform expressed in CHOK1 cells assessed as increase in IP1 accumulation after 60 mins by HTRF assay; assay type: functional, cell-based, CHO-K1
T1 sequence (Q5NUL3 whole entry): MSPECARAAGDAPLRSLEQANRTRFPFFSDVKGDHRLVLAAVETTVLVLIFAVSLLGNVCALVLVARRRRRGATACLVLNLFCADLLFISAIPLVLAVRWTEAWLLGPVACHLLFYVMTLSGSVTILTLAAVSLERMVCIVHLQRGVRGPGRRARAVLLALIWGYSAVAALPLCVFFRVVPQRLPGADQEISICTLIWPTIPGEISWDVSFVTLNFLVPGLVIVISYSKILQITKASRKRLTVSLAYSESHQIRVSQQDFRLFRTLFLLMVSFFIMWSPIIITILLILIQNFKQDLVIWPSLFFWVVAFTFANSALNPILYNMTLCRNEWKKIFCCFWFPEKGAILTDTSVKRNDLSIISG

[2] = target: T1, Free fatty acid receptor 4; assay: Agonist activity at human GPR120 short isoform expressed in CHOK1 cells assessed as beta-arrestin recruitment after 90 mins by luminescence assay; assay type: cell-based, CHO-K1
[3] = target: Free fatty acid receptor 1 (Homo sapiens, UniProt O14842); assay: Agonist activity at human GPR40 expressed in HEK293 cells assessed as increase in IP1 accumulation after 60 mins by HTRF assay; assay type: functional, cell-based
[4] = Clearance in rat plasma at 0.1 mg/kg administered as iv casette dose by LC/MS/MS analysis; assay type: ADME, organism-based
[5] = Terminal half life in rat plasma at 0.1 mg/kg administered as iv casette dose by LC/MS/MS analysis; assay type: ADME, organism-based; details: read-out: beta t1/2 (converted)
[6] = Volume of distribution at steady state in rat plasma at 0.1 mg/kg administered as iv casette dose by LC/MS/MS analysis; assay type: ADME, organism-based; details: read-out: Vdss
[7] = Intrinsic clearance in rat plasma at 0.1 mg/kg administered as iv casette dose by LC/MS/MS analysis; assay type: ADME, organism-based; details: in vivo
[8] = Plasma concentration in C57BL/6 transverse aortic constriction mouse at 30 mg/kg, po via gavage measured at 3 hrs; assay type: ADME, organism-based; details: C57BL/6, mouse
[9] = Plasma concentration in wild type C57BL/6 transverse aortic constriction mouse harboring GPR120 at 150 mg/kg, po measured at 3 hrs; assay type: ADME, organism-based; details: C57BL/6, mouse
[10] = Plasma concentration in GPR120 knockout C57BL/6 transverse aortic constriction mouse at 150 mg/kg, po measured at 3 hrs; assay type: ADME, organism-based; details: C57BL/6, mouse
[11] = target: T2, Free fatty acid receptor 4 (Mus musculus, UniProt Q7TMA4); assay: Agonist activity at mouse GPR120 expressed in CHOK1 cells assessed as increase in IP1 accumulation after 60 mins by HTRF assay; assay type: functional, cell-based, CHO-K1
T2 sequence (Q7TMA4 whole entry): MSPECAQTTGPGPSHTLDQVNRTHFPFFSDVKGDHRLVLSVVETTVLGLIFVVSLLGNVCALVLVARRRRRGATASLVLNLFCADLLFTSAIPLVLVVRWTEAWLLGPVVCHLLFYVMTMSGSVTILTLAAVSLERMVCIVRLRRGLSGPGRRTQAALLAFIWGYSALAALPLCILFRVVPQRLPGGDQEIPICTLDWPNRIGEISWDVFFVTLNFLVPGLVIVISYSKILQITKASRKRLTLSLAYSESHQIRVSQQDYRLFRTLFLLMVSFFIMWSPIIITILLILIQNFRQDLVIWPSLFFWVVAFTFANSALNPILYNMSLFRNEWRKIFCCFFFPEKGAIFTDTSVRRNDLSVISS

[12] = target: T2, Free fatty acid receptor 4; assay: Agonist activity at mouse GPR120 expressed in human U2OS cells assessed as beta-arrestin recruitment after 90 mins by luminescence assay; assay type: cell-based
[13] = target: Free fatty acid receptor 1 (Mus musculus, UniProt Q76JU9); assay: Agonist activity at mouse GPR40 assessed as increase in IP1 accumulation after 60 mins by HTRF assay; assay type: functional
[14] = target: Voltage-dependent L-type calcium channel subunit alpha-1C (Homo sapiens, UniProt Q13936); assay: Inhibition of Cav1.2 (unknown origin)
Cytochrome P450 3A4 = Cytochrome P450 3A4 (Homo sapiens, UniProt P08684); assay: Inhibition of human CYP3A4; assay type: ADME
Cytochrome P450 2D6 = Cytochrome P450 2D6 (Homo sapiens, UniProt P10635); assay: Inhibition of human CYP2D6; assay type: ADME
Cytochrome P450 2C9 = Cytochrome P450 2C9 (Homo sapiens, UniProt P11712); assay: Inhibition of human CYP2C9; assay type: ADME
[15] = AUC in rat plasma at 1 mg/kg, iv by LC/MS/MS analysis; assay type: ADME, organism-based
[16] = Clearance in rat plasma at 1 mg/kg, iv or 2 mg/kg, po by LC/MS/MS analysis; assay type: ADME, organism-based
[17] = Volume of distribution at steady state in rat plasma at 1 mg/kg, iv or 2 mg/kg, po by LC/MS/MS analysis; assay type: ADME, organism-based; details: read-out: Vdss
[18] = Terminal half life in rat plasma at 1 mg/kg, iv or 2 mg/kg, po by LC/MS/MS analysis; assay type: ADME, organism-based; details: read-out: beta t1/2 (converted)
[19] = Mean residence time in rat plasma at 1 mg/kg, iv or 2 mg/kg, po by LC/MS/MS analysis; assay type: ADME, organism-based
[20] = Oral bioavailability in rat plasma at 2 mg/kg by LC/MS/MS analysis; assay type: ADME, organism-based
[21] = Protein binding in rat plasma at 1 mg/kg, iv or 2 mg/kg, po by LC/MS/MS analysis; assay type: ADME, organism-based; details: read-out: PPB (converted)
[22] = AUC in mouse plasma at 2 mg/kg, iv by LC/MS/MS analysis; assay type: ADME, organism-based
[23] = Clearance in mouse plasma at 2 mg/kg, iv or 30 mg/kg, po by LC/MS/MS analysis; assay type: ADME, organism-based
[24] = Volume of distribution at steady state in mouse plasma at 2 mg/kg, iv or 30 mg/kg, po by LC/MS/MS analysis; assay type: ADME, organism-based; details: read-out: Vdss
[25] = Terminal half life in mouse plasma at 2 mg/kg, iv or 30 mg/kg, po by LC/MS/MS analysis; assay type: ADME, organism-based; details: read-out: beta t1/2 (converted)
[26] = Oral bioavailability in mouse plasma at 30 mg/kg by LC/MS/MS analysis; assay type: ADME, organism-based
[27] = AUC in rhesus monkey plasma at 0.5 mg/kg, iv by LC/MS/MS analysis; assay type: ADME, organism-based, Macaca mulatta
[28] = Terminal half life in rhesus monkey plasma at 0.5 mg/kg, iv or 1 mg/kg, po by LC/MS/MS analysis; assay type: ADME, organism-based, Macaca mulatta; details: read-out: beta t1/2 (converted)
[29] = Mean residence time in rhesus monkey plasma at 0.5 mg/kg, iv or 1 mg/kg, po by LC/MS/MS analysis; assay type: ADME, organism-based, Macaca mulatta
[30] = Oral bioavailability in rhesus monkey plasma at 1 mg/kg by LC/MS/MS analysis; assay type: ADME, organism-based, Macaca mulatta
[31] = Plasma concentration in C57BL/6 mouse oral glucose tolerance test at 3 mg/kg, po via gavage measured at 3 hrs

Sequence of Cytochrome P450 3A4 (P08684 whole entry): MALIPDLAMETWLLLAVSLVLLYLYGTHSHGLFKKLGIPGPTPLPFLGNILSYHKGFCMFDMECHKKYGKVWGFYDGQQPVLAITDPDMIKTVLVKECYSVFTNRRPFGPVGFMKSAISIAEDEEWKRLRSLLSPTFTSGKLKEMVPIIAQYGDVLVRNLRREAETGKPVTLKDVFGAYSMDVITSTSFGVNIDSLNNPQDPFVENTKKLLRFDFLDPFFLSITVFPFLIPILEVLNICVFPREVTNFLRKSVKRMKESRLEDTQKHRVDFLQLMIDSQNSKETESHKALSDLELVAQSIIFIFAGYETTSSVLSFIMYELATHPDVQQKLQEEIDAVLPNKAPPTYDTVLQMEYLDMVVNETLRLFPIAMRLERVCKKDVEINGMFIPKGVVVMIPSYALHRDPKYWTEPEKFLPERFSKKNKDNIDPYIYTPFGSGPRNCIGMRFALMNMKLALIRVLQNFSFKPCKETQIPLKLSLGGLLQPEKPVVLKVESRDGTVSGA
Sequence of Cytochrome P450 2D6 (P10635 whole entry): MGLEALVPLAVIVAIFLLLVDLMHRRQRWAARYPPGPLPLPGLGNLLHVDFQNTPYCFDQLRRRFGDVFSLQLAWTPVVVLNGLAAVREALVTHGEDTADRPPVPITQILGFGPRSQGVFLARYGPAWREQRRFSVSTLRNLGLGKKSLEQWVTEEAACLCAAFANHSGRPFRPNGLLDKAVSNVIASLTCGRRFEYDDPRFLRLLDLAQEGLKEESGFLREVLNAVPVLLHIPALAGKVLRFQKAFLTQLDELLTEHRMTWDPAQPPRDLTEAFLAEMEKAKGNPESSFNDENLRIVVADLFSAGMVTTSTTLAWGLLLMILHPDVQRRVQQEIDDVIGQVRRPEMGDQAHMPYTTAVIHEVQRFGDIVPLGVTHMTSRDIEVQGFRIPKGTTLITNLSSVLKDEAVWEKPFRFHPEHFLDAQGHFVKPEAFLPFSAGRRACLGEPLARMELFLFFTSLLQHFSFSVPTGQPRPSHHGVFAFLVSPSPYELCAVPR
Sequence of Free fatty acid receptor 1 (Homo sapiens, UniProt O14842) (O14842 whole entry): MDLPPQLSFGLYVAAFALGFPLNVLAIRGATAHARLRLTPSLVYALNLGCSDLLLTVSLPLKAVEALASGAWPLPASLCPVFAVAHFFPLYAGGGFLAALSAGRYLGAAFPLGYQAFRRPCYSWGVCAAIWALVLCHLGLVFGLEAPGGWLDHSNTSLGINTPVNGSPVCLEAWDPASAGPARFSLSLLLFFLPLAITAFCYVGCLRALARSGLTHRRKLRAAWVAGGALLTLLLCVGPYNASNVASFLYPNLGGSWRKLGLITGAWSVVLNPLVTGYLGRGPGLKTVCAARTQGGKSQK
Sequence of Free fatty acid receptor 1 (Mus musculus, UniProt Q76JU9) (Q76JU9 whole entry): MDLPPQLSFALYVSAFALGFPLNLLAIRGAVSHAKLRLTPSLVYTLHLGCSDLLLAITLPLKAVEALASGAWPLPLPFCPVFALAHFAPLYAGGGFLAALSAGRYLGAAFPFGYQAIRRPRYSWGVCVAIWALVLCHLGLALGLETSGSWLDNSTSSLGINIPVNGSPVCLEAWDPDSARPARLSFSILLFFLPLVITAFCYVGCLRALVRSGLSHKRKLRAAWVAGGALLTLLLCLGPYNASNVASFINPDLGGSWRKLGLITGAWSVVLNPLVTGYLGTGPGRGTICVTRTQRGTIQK
Sequence of Voltage-dependent L-type calcium channel subunit alpha-1C (Q13936 whole entry): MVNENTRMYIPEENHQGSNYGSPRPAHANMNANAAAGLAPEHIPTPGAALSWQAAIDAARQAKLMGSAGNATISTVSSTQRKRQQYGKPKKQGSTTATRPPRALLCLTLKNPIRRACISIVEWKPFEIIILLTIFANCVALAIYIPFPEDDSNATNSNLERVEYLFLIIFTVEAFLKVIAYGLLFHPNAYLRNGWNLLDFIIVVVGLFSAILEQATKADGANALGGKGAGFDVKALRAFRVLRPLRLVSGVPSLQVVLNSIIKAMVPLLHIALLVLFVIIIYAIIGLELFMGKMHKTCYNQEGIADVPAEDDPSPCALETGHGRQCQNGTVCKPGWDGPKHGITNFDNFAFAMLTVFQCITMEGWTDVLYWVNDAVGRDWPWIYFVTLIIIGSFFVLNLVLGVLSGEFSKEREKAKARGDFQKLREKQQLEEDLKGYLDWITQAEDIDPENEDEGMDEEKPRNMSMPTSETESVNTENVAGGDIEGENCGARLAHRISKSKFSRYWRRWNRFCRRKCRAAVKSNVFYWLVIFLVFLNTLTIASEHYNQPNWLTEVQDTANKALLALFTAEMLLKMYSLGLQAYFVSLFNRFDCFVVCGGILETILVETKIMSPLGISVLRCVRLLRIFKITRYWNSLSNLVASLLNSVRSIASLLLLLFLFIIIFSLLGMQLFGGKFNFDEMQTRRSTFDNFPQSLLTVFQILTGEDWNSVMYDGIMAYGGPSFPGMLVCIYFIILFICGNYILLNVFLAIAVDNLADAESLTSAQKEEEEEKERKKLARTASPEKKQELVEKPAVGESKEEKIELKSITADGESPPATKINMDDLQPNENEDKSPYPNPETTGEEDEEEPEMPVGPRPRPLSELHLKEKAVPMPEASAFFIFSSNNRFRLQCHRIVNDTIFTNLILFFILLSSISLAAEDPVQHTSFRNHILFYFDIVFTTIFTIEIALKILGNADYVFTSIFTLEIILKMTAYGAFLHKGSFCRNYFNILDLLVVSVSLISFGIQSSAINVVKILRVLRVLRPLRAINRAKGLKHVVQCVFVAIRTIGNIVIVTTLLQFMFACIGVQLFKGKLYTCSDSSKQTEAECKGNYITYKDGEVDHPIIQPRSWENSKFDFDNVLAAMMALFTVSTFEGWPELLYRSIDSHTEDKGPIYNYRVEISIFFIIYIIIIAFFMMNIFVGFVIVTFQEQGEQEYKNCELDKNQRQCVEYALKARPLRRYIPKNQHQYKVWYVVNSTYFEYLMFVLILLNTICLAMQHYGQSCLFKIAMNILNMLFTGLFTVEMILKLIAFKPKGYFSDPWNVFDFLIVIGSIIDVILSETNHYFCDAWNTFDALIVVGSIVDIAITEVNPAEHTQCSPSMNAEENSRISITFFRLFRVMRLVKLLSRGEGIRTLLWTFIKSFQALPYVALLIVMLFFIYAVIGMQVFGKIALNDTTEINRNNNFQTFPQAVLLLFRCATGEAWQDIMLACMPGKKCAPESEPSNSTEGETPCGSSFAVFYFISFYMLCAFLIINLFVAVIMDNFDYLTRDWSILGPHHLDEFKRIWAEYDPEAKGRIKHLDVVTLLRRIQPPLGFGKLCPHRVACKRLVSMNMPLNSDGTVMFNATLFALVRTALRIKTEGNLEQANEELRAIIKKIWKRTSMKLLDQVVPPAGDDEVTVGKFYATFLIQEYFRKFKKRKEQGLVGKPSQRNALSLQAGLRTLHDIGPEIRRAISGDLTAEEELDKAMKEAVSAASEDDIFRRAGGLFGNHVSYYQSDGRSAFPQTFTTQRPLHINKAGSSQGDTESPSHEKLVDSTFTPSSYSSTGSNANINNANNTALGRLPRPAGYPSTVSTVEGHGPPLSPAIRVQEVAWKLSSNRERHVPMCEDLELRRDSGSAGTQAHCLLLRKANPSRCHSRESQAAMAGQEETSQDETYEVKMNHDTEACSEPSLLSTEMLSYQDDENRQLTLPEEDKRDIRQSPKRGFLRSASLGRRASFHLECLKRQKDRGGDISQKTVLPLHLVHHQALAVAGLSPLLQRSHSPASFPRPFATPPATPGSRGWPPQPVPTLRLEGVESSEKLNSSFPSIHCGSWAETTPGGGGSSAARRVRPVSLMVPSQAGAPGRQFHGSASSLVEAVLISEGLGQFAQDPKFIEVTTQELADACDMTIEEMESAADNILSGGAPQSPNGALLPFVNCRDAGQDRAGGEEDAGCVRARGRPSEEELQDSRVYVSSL
Sequence of Cytochrome P450 2C9 (P11712 whole entry): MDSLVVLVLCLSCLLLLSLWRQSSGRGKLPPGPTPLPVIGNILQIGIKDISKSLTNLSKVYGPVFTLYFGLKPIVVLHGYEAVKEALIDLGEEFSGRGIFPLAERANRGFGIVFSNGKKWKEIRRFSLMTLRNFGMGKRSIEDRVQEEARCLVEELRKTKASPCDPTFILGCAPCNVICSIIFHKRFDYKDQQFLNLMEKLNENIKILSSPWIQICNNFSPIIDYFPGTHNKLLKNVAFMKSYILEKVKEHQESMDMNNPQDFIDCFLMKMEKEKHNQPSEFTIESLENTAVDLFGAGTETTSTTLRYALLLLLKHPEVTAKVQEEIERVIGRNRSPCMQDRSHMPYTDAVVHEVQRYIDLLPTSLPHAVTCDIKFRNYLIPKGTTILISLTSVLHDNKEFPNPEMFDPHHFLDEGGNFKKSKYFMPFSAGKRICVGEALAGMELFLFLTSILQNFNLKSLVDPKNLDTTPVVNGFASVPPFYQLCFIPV

EC50 [1]: 35 nM
EC50 [2]: 24 nM
EC50 [3]: > 10000 nM
clearance [4]: 1.3 mL/min/kg
half-life [5]: 2.1 h
Vd [6]: 0.24 L/kg
CL [7]: 560 mL/min/kg
concentration at 3 h [8]: 3.12 µM
concentration at 3 h [9]: 43.9 µM
concentration at 3 h [10]: 53.4 µM
EC50 [11]: 6.4 nM
EC50 [12]: 6.8 nM
EC50 [13]: > 10000 nM
IC50 (Cytochrome P450 3A4): > 50000 nM
IC50 (Cytochrome P450 2D6): > 50000 nM
IC50 (Cytochrome P450 2C9): > 50000 nM
AUC [15]: 35.9 µM·h
clearance [16]: 1.1 mL/min/kg
Vd [17]: 0.3 L/kg
half-life [18]: 4.6 h
MRT [19]: 4.6 h
bioavailability [20]: 93%
fraction unbound [21]: 0.0024
AUC [22]: 8.1 µM·h
clearance [23]: 9.9 mL/min/kg
Vd [24]: 1.4 L/kg
half-life [25]: 3 h
bioavailability [26]: 76%
AUC [27]: 57.8 µM·h
half-life [28]: 9.8 h
MRT [29]: 13.5 h
bioavailability [30]: 82%
Compound: CO[C@H]1C[C@H](Oc2cc(F)c(F)c(-c3ccc4c(c3)CC[C@H](CCC(=O)O)O4)n2)C1
IC50 [14]: 28000 nM
concentration at 3 h [31]: 0.75 µM
